Test [1] addresses T1, Drg1 (Saccharomyces cerevisiae, UniProt P32794, K563A).
T1 construct: gene AFG2; full-length type II AAA-ATPase, N-terminal GST-tag with PreScission site (plasmids derived from pAZ7), expressed in yeast from CUP1 promoter; Walker A mutants KA1 (K292A) and KA2 (K563A); hexamer in presence of nucleotide
T1 sequence (P32794 1-780 K563A): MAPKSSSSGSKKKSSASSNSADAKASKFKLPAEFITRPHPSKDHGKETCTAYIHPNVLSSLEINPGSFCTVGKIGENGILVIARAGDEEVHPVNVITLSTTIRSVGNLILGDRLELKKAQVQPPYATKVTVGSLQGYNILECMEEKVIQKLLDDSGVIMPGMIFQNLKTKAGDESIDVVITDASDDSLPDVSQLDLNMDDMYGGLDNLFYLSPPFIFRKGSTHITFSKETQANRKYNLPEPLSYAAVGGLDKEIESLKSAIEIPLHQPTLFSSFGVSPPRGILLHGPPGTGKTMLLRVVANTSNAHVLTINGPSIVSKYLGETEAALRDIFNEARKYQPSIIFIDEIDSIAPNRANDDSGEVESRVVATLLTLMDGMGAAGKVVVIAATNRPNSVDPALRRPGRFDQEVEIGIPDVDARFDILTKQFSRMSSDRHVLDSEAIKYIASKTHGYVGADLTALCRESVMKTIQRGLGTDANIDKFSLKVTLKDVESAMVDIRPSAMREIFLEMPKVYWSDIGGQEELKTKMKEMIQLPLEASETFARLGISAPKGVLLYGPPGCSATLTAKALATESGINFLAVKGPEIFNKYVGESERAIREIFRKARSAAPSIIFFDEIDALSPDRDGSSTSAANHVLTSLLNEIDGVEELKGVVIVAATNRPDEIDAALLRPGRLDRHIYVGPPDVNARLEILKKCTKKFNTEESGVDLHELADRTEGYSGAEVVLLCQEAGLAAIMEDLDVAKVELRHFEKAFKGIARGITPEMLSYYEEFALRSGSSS
The test is described as follows: differential scanning fluorimetry. Type of test: binding. (In general: DSF heats the sample and reads unfolding from a dye or from intrinsic fluorescence.)

The target of test [2] is T2, Drg1 (Saccharomyces cerevisiae, UniProt P32794, K292A).
T2 construct: gene AFG2; full-length type II AAA-ATPase, N-terminal GST-tag with PreScission site (plasmids derived from pAZ7), expressed in yeast from CUP1 promoter; Walker A mutants KA1 (K292A) and KA2 (K563A); hexamer in presence of nucleotide
T2 sequence (P32794 1-780 K292A): T1 sequence (P32794 1-780 K563A) with K292A, A563K
Description: differential scanning fluorimetry. Type of test: binding. The settings on record: read-out: Kd(ATP).

Changes are numbered by the printed parent chain. Where two headings read alike, the source gives them in different places.

For orientation: Kd means a measure of binding affinity in units of concentration.

As to `Nc1ncnc2c1ncn2[C@@H]1O[C@H](COP(=O)(O)OP(=O)(O)OP(=O)(O)O)[C@@H](O)[C@H]1O` [ATP], the Kd was roughly 20 µM on Drg1 [1] (read-out: Kd(ATP)) and roughly 80 µM at Drg1 [2].
Turning to `Nc1ncnc2c1ncn2[C@@H]1O[C@H](COP(=O)(O)OP(=O)(O)O)[C@@H](O)[C@H]1O` [ADP], the Kd on Drg1 [1] (read-out: Kd(ADP)) was roughly 120 µM.

(Values after PMC5356007, “A conserved inter-domain communication mechanism regulates the ATPase activity of the AAA-protein Drg1” (Scientific Reports, 2017).)
